Values after ≈ are worked out from the molar mass of the structure shown.
Key:
ESCHERICHIA COLI SS = assay: In vitro antibacterial activity, agar dilution MIC (BHIA); type: cell-based; details: BHI agar
Excerpt: (§1) The MIC results are in μg/ml.

ESCHERICHIA COLI H560 = assay: as above; type: cell-based; details: BHI agar
Excerpt: as §1

ESCHERICHIA COLI DC-2 = assay: as above; type: cell-based; details: BHI agar
Excerpt: as §1

[1] = tested on: MICROCOCCUS LUTEUS ATCC 9341; assay: as above; type: cell-based; details: BHI agar
[2] = tested on: PSEUDOMONAS AERUGINOSA BMH10; assay: as above; type: cell-based; details: BHI agar
PSEUDOMONAS CEPACIA 2961 = assay: as above; type: cell-based; details: BHI agar
Stap. Aureus NCTC 10649 = assay: Acute mouse protection test; type: in vivo; details: mice infected intraperitoneally with Stap. Aureus NCTC 10649, dosed at 1 and 5 hours post-infection
[3] = tested on: PSEUDOMONAS AERUGINOSA K799/WT; assay: In vitro antibacterial activity, agar dilution MIC (BHIA); type: cell-based; details: BHI agar
[4] = tested on: STREPTOCOCCUS BOVIS A5169; assay: as above; type: cell-based; details: BHI agar
[5] = tested on: PSEUDOMONAS AERUGINOSA K799/61; assay: as above; type: cell-based; details: BHI agar
[6] = tested on: ENTEROBACTER AEROGENES ATCC 13048; assay: as above; type: cell-based; details: BHI agar
[7] = tested on: PROVIDENCIA STUARTII CMX 640; assay: as above; type: cell-based; details: BHI agar
[8] = tested on: PSEUDOMONAS AERUGINOSA A5007; assay: as above; type: cell-based; details: BHI agar
P. Aeruginosa A5007 = assay: Acute mouse protection test; type: in vivo; details: mice infected intraperitoneally with P. Aeruginosa A5007, dosed at 1 and 5 hours post-infection
[9] = tested on: MICROCOCCUS LUTEUS ATCC 4698; assay: In vitro antibacterial activity, agar dilution MIC (BHIA); type: cell-based; details: BHI agar
ESCHERICHIA COLI KNK 437 = assay: as above; type: cell-based; details: BHI agar
E. Coli Juhl [10] = assay: Acute mouse protection test; type: in vivo; details: mice infected intraperitoneally with E. Coli JUHL, dosed at 1 and 5 hours post-infection
[11] = tested on: ENTEROCOCCUS FAECIUM ATCC 8043; assay: In vitro antibacterial activity, agar dilution MIC (BHIA); type: cell-based; details: BHI agar
[12] = Aqueous solubility (water and pH 7.4); details: the sign > refers to an approximate value, solubility may be within 10% higher
Strep pyogenes EES 61 = assay: Second in vitro test, MIC in Brain Heart Infusion Broth (BHIB)
Method: (§2) The in vitro antibacterial activity of the test compounds was determined by conventional agar dilution procedures. The organisms were grown overnight in brain-heart infusion (BHI) broth (Difco 0037-01-6) at 36° C. Twofold dilutions of the stock solution (2000 mcg/mL) of the test compound were made in BHI agar to obtain a test concentration ranging from 200 to 0.005 mcg/mL. The plate was inoculated with approximately 10^4 organisms. It was then incubated at 36° C. for 18 h.

Ps. Aeruginosa A5007 = assay: as above
Method: as §2

E. Coli Juhl [13] = assay: as above
Method: as §2

[14] = Plasma level in dog after oral dose; type: in vivo; details: 10 mg equivalent/kg oral dose, HPLC
Excerpt: The plasma samples were collected and determined by the HPLC analysis.

Stap. Aureus CMX 553 = assay: Second in vitro test, MIC in Brain Heart Infusion Broth (BHIB)
Method: as §2

[15] = Conversion of prodrug to parent drug in whole blood at 37° C.; type: in vitro ADME; details: conversion to parent drug in dog whole blood at 37° C.; seconds; two values = two prodrug peaks
Method: An aqueous solution of prodruq (Z) is spiked into fresh whole blood containing sodium heparin as an anticoagulant. The sample is mixed gently by inversion and placed in a 37° waterbath. At selected time intervals an 0.5 ml aliquot of blood is removed and placed in a chilled 1.5 ml centrifuge tube (ice temperature). Samples are centrifuges at 13,000 rpm for two minutes to separate plasma. An 0.2 ml aliquot of the plasma sample is combined with 0.2 ml internal standard (7-(4-amino-2-methyl-1-pyrrolidinyl)-1-(2,4-difluorophenyl)-6-fluoro-1,4-d ihydro-4-oxo-1,8-naphthyridine-3-carboxylic acid in 0.2 M sodium phosphate pH 7.2 buffer) and 6 mls CH2 Cl2 :EtoH (9:1 by volume). Samples are capped and shaken gently for 10 minutes. Samples are centrifuqes at 2500 rpm for 10 minutes (4° C.). The aqueous layer is aspirated to waste and the organic layer is transferred to a conical centrifuge tube and evaporated to dryness with a stream of dry air and low heat […]. Samples are reconstituted with 0.2 ml mobile phase followed by vortexing. Samples are centrifuqes at 2500 rpm for 10 minutes to separate precipitate. The supernatant is transferred to a WISP vial with plastic insert for HPLC analysis.

[16] = tested on: KLEBSIELLA PNEUMONIAE ATCC 8045; assay: In vitro antibacterial activity, agar dilution MIC (BHIA); type: cell-based; details: BHI agar
ESCHERICHIA COLI JUHL = assay: as above; type: cell-based; details: BHI agar
[17] = tested on: STREPTOCOCCUS PYOGENES 930 CONST; assay: as above; type: cell-based; details: BHI agar
[18] = tested on: STREPTOCOCCUS PYOGENES EES61; assay: as above; type: cell-based; details: BHI agar
[19] = tested on: STREPTOCOCCUS PYOGENES 2548 INDUC; assay: as above; type: cell-based; details: BHI agar
[20] = tested on: STREPTOCOCCUS AGALACTIAE CMX 508; assay: as above; type: cell-based; details: BHI agar
ACINETOBACTER SP CMX 669 = assay: as above; type: cell-based; details: BHI agar

| Molecule | MIC (ESCHERICHIA COLI SS) | MIC (ESCHERICHIA COLI H560) | MIC (ESCHERICHIA COLI DC-2) [µg/mL] | MIC [1] [µg/mL] | MIC [2] [µg/mL] | MIC (PSEUDOMONAS CEPACIA 2961) [µg/mL] | Oral (ED50) (Stap. Aureus NCTC 10649) [mg/kg/day] | MIC [3] [µg/mL] | MIC ([4]; STREPTOCOCCUS BOVIS A5169) [µg/mL] | MIC [5] | MIC [6] [µg/mL] | MIC [7] [µg/mL] | MIC [8] [µg/mL] | Oral (ED50) (P. Aeruginosa A5007) [mg/kg/day] | MIC [9] | MIC (ESCHERICHIA COLI KNK 437) [µg/mL] | Oral (ED50) (E. Coli Juhl [10]) [mg/kg/day] | MIC ([11]; ENTEROCOCCUS FAECIUM ATCC 8043) | Water Solubility [12] [mg/mL] | MIC [16] | further results |
| --- | --- | --- | --- | --- | --- | --- | --- | --- | --- | --- | --- | --- | --- | --- | --- | --- | --- | --- | --- | --- | --- |
| CC(N)C(=O)NC(C)C(=O)NC1CCN(c2nc3c(cc2F)c(=O)c(C(=O)O)cn3-c2ccc(F)cc2F)C1 (stereo not drawn) [Example 15] | .39 µg/mL (≈ 0.714 µM) | 6.2 µg/mL (≈ 11.3 µM) | 100 (≈ 183 µM) | > 100 | 100 (≈ 183 µM) | 50 (≈ 91.5 µM) | 1.3 | 50 (≈ 91.5 µM) | 50 (≈ 91.5 µM) | 3.1 µg/mL (≈ 5.67 µM) | 25 (≈ 45.7 µM) | 100 (≈ 183 µM) | 100 (≈ 183 µM) | 9.1 | 100 µg/mL (≈ 183 µM) | 50 (≈ 91.5 µM) | 2.0 | 50 µg/mL (≈ 91.5 µM) |  |  |  |
| NC1CCN(c2nc3c(cc2F)c(=O)c(C(=O)O)cn3-c2ccc(F)cc2)C1 (stereo not drawn) [compound A, 7-(3-amino-1-pyrrolidinyl)-6-fluoro-1-(4-fluorophenyl)-1,4-dihydro-4-oxo-1 ,8-naphthyridine-3-carboxylic acid, reference compound] |  |  |  |  |  |  |  |  |  |  |  |  |  |  |  |  |  |  | 1.4 |  |  |
| CCC[C@H](NC(=O)[C@H](C)N)C(=O)NC1CCN(c2nc3c(cc2F)c(=O)c(C(=O)O)cn3-c2ccc(F)cc2F)C1 (stereo partly drawn) [Example 55b, 7-(3-Ala-Nval-amino-1-pyrrolidinyl)-6-fluoro-1-(2,4-difluorophenyl)-1,4-di hydro-4-oxo-1,8-naphthyridine-3-carboxylic acid] |  |  |  |  |  |  |  |  |  |  |  |  |  |  |  |  |  |  | 26 |  |  |
| CCC[C@H](NC(=O)[C@@H](N)CCC)C(=O)NC1CCN(c2nc3c(cc2F)c(=O)c(C(=O)O)cn3-c2ccc(F)cc2F)C1.Cl (stereo partly drawn) [Example 3b, 7-(3-L-Norvaline-L-Norvalineamino-1-pyrrolidinyl)-1-(2,4-difluorophenyl)-6-fluoro-1,4-dihydro-4-oxo-1,8-naphthyridine-3-carboxylic acid hydrochloride] |  |  |  |  |  |  | 1.8 |  |  |  |  |  |  | 9.1 |  |  | 4.0 |  | > 40 |  | MIC (Strep pyogenes EES 61): 12.5 µg/mL; MIC (Ps. Aeruginosa A5007): 50 µg/mL; MIC (E. Coli Juhl [13]): 25 µg/mL; C max (range) ([14]; maximum plasma concentration): 1.9 (1.5-2.2) mcg/ml; AUC (0-32 h) ([14]; plasma, 0-32 h): 10.2 µg·h/mg; MIC (Stap. Aureus CMX 553): 12.5 µg/mL; Half Life Dog [15]: 1.44 min |
| Cl.NCC(=O)N[C@@H](Cc1ccccc1)C(=O)NC1CCN(c2nc3c(cc2F)c(=O)c(C(=O)O)cn3-c2ccc(F)cc2F)C1 (stereo partly drawn) [Example 1b, 7-[(3-Gly-L-Phe-amino)-1-pyrrolidinyl]-1-(2,4-difluorophenyl)-6-fluoro-1,4-dihydro-4-oxo-1,8-naphthyridine-3-carboxyli c acid hydrochloride] | .2 µg/mL | 1.56 µg/mL | 100 | 6.25 | 25 | 50 | 0.7 | 25 |  | 12.5 µg/mL | 12.5 | 100 | 25 | 27.3 | .78 µg/mL | 25 | 1.8 |  |  | 12.5 µg/mL | MIC (ESCHERICHIA COLI JUHL): 3.12 µg/mL; MIC [17]: .78 µg/mL; MIC ([4]; STR[…] A5169): 1.56 µg/mL; MIC ([18]; STR[…] EES61): 1.56 µg/mL; MIC [19]: .78 µg/mL; MIC ([20]; STR[…] 508): 1.56 µg/mL; MIC (ACINETOBACTER SP CMX 669): 12.5 µg/mL; MIC ([11]; EN[…] ATCC 8043): 1.56 µg/mL |
| 7-[3-Norvaline-amino-1-pyrrolidinyl]-1-(2,4-difluoro-phenyl)- 6-fluoro-1,4-dihydro-4-oxo-1,8-naphthyridine-3-carboxylic acid hydrochloride [Example 2b] | .02 µg/mL | .78 µg/mL | 12.5 | 25 | 6.2 | 50 |  | 6.2 | 1.56 | .39 µg/mL | 3.1 | 50 | 12.5 |  | 25 µg/mL | 6.2 |  | .78 µg/mL |  | .39 µg/mL | MIC (ESCHERICHIA COLI JUHL): .78 µg/mL; MIC [17]: .78 µg/mL; MIC ([18]; STREPTOCOCCUS PYOGENES EES61): 1.56 µg/mL; MIC [19]: .39 µg/mL; MIC ([20]; STREPTOCOCCUS AGALACTIAE CMX 508): 1.56 µg/mL; MIC (ACINETOBACTER SP CMX 669): 3.1 µg/mL |

Reference: US5057523A, “Dipeptide quinolone derivatives” (Abbott Laboratories, priority 1989, dated 1991)
